Read-outs that look alike come from different tables or passages of the source. A value given as a limit tells only on which side of the number the result lay.

In one experiment the target is T1, HIV protease (Human immunodeficiency virus type 1 group M subtype B, UniProt P04585).
T1 construct: HIV protease was expressed in E. coli and partially purified from soluble extracts; made in house; host or cells: E. coli
Nature of the experiment: In vitro inhibition of HIV protease (spectrophotometric assay of N-terminal proline from cleavage of substrate S¹ or S²). It is filed as biochemical. The conditions noted are these: citrate buffer pH 5.5, 37°C. As to the method:
HIV protease was expressed in E. coli and partially purified from soluble extracts of the bacterium by ammonium sulphate fractionation (0-30%). Protease activity was assayed using as the substrate the protected hexapeptide succinyl-Ser-Leu-Asn-Tyr-Pro-Ile isobutylamide (S¹) or the protected heptapeptide succinyl-Val-Ser-Gln-Asn-Phe-Pro-Ile isobutylamide (S²). Cleavage of the substrate was quantified by measuring the production of H-Pro-Ile isobutylamide by the spectrophotometric assay of N-terminal proline.
1.25 mM of substrate S¹ or 0.68 mM of substrate S² were dissolved in 125 mM of citrate buffer (pH 5.5) containing 0.125 mg/ml of Tween 20. 10 µl of a solution of various concentrations of the test compound (dissolved in methanol or dimethyl sulphoxide and diluted with water containing 0.1% Tween 20) and 10 µl of protease were added to 80 µl of the respective buffered substrate. Digestion was carried out at 37°C for a fixed period of time and was terminated by the addition of 1 ml of colour reagent [30 µg/ml of isatin and 1.5 mg/ml of 2-(4-chlorobenzoyl)benzoic acid in 10% acetone in ethanol (vol./vol.)]. The solution was heated in a boiling water bath for 15 minutes and then the pigmented residues were re-dissolved in 1 ml of 1% pyrogallol in 33% water in acetone (wt./vol./vol.). The optical density of the solution was measured spectrophotometrically at 599 nm. The formation of H-Pro-Ile isobutylamide in the presence of the test compound was compared with controls and the concentration of test compound required to give 50% inhibition (IC₅₀) was determined by means of a graph plotted from the various concentrations of test compound used.
In the above test the determination of the IC₅₀ values for potent inhibitors is limited by mutual depletion. In this respect, substrate S² is more sensitive than substrate S¹ and this allows reduced protease concentrations to be used, which results in lower IC₅₀ values. This will be seen from the results presented in the Table hereinafter where in turn the 2nd run with substrate S² was carried out using a lower protease concentration than in the 1st run which results again in lower IC₅₀ values.

The next experiment relates to HTLV-III (strain RF). Nature of the experiment: In vitro antiviral activity: HTLV-III (strain RF) in C8166 cells, p24 antigen capture assay. The conditions noted are these: Human immunodeficiency virus 1; concentration that produces 50% protection; C8166 cells infected with ten times the TCD₅₀, 72 hours at 37°C, viral protein 24 antigen capture; read-out: IC₅₀ Activity against HIV. The class given is cell-based. The procedure:
This assay uses HTLV-III (strain RF) grown in C8166 cells (a human CD4⁺ T lymphoblastoid line) using RPM1 1640 medium with bicarbonate buffer, antibiotics and 10% foetal bovine serum.
A suspension of cells is infected with ten times the TCD₅₀ of virus and adsorption allowed to proceed for 90 minutes at 37°C. The cells are washed three times with medium. The test is carried out in 6 ml tissue culture tubes, each tube containing 2 x 10⁵ infected cells in 1.5 ml of medium. Test compounds are dissolved in either aqueous medium or dimethyl sulphoxide, according to solubility, and a 15 µl solution of the compound added. The cultures are incubated at 37°C for 72 hours in a humidified atmosphere containing 5% carbon dioxide in air. The cultures are then centrifuged and an aliquot of the supernatant solubilized with Nonidet P40 and subjected to an antigen capture assay which uses a primary antiserum with particular reactivity against the viral protein 24 and a horseradish peroxidase detection system. Colour generation is measured spectrophotometrically and plotted against the concentration of test compound. The concentration that produces 50% protection is determined (IC₅₀).

Where [1] appears, read: substrate S² (succinyl-Val-Ser-Gln-Asn-Phe-Pro-Ile isobutylamide), 0.68 mM, 1st run, read-out: IC₅₀ Inhibition of HIV protease S² 1st run.
The mark [2] stands for this setting: substrate S², 0.68 mM, 2nd run, lower protease concentration than in the 1st run, read-out: IC₅₀ Inhibition of HIV protease S² 2nd run.
[3] abbreviates: substrate S¹ (succinyl-Ser-Leu-Asn-Tyr-Pro-Ile isobutylamide), 1.25 mM, read-out: IC₅₀ Inhibition of HIV protease S¹.

Turning to `CC[C@H](C)[C@H](NC(=O)[C@@H](C[C@H](O)[C@H](CC1CCCCC1)NC(=O)OC(C)(C)C)C(C)C)C(=O)NCCc1ccccc1` [Compound A, N²-[5(S)-(tert.Butoxyformamido)-6-cyclohexyl-4(S)-hydroxy-2(S)-isopropylhexanoyl]-N¹-phenethyl-L-isoleucinamide], the IC50 on HIV protease (setting [1]) stood at 4.5 nM; at HIV protease (setting [2]), 0.62 nM; at HIV protease (setting [3]) it was 12 nM; in the experiment on HTLV-III (strain RF) it was 100 nM.

As to `CC[C@H](C)[C@H](NC(=O)[C@@H](C[C@H](O)[C@H](CC1CCCCC1)NC(=O)OCc1ccccc1)C(C)C)C(=O)NCCc1ccccc1` [Compound H, N²-[5(S)-Benzyloxyformamido-6-cyclohexyl-4(S)-hydroxy-2(S)-isopropylhexanoyl]-N¹-phenethyl-L-isoleucinamide], the IC50 was determined as 3 nM on HIV protease (setting [1]), 0.91 nM at HIV protease (setting [2]), 22 nM at HIV protease (setting [3]) and 60 nM in the experiment on HTLV-III (strain RF).

As for `CC[C@H](C)[C@H](NC(=O)[C@@H](C[C@H](O)[C@H](CC1CCCCC1)NC(=O)OC(C)(C)C)C(C)C)C(=O)N[C@@H](Cc1ccccc1)C(=O)OC` [Compound B, N-[N-[5(S)-(tert.Butoxyformamido)-6-cyclohexyl-4(S)-hydroxy-2(S)-isopropylhexanoyl]-L-isoleucyl]-L-phenylalanine methyl ester], the IC50 on HIV protease (setting [1]) was 3.4 nM; at HIV protease (setting [2]) it was 0.48 nM; on HIV protease (setting [3]), 20 nM.

As to `CC[C@H](C)[C@H](NC(=O)[C@@H](C[C@H](O)[C@H](CC1CCCCC1)NC(=O)OC(C)(C)C)C(C)C)C(=O)NCc1ccccc1` [Compound C, N²-[5(S)-(tert.Butoxyformamido)-6-cyclohexyl-4(S)-hydroxy-2(S)-isopropylhexanoyl]-N¹-benzyl-L-isoleucinamide], the IC50 at HIV protease (setting [1]) amounted to 3.3 nM; on HIV protease (setting [3]), 15 nM; in the experiment with HTLV-III (strain RF) it was 7 nM.

`CC[C@H](C)[C@H](NC(=O)[C@@H](C[C@H](O)[C@H](CC1CCCCC1)NC(=O)[C@H](CC(N)=O)NC(=O)OCc1ccccc1)C(C)C)C(=O)NCCc1ccccc1` [Compound I, N²-[5(S)-[[N-(Benzyloxycarbonyl)-L-asparaginyl]amino]-6-cyclohexyl-4(S)-hydroxy-2(S)-isopropylhexanoyl]-N¹-phenethyl-L-isoleucinamide]: the IC50 at HIV protease (setting [1]) came to 2.5 nM; on HIV protease (setting [2]) it was 0.39 nM; on HIV protease (setting [3]) it was 80 nM; in the experiment on HTLV-III (strain RF), 9 nM.

Take `CC[C@H](C)[C@H](NC(=O)[C@@H](C[C@H](O)[C@H](CC1CCCCC1)NC(=O)OC(C)(C)C)C(C)C)C(=O)NCCc1ccc(O)cc1` [Compound M, N²-[5(S)-(tert.Butoxyformamido)-6-cyclohexyl-4(S)-hydroxy-2(S)-isopropylhexanoyl]-N¹-[2-(4-hydroxyphenyl)ethyl]-L-isoleucinamide]: the IC50 on HIV protease (setting [2]) worked out at 3.7 nM; in the experiment on HTLV-III (strain RF) it was 10 nM.

As to `CC[C@H](C)[C@H](NC(=O)[C@@H](C[C@H](O)[C@H](CC1CCCCC1)NC(=O)OC(C)(C)C)C(C)C)C(=O)NCCc1ccccn1` [Compound D, N²-[5(S)-(tert.Butoxyformamido)-6-cyclohexyl-4(S)-hydroxy-2(S)-isopropylhexanoyl]-N¹-[2-(2-pyridyl)ethyl]-L-isoleucinamide], the IC50 at HIV protease (setting [1]) was found to be 2.5 nM; on HIV protease (setting [2]) it was 0.52 nM; in the experiment with HTLV-III (strain RF), 20 nM.

For `CC[C@H](C)[C@H](NC(=O)[C@@H](C[C@H](O)[C@H](CC1CCCCC1)NC(=O)OC(C)(C)C)C(C)C)C(=O)NCCN1CCN(C(=O)OCc2ccccc2)CC1` [Compound L, N¹-[2-[4-(Benzyloxycarbonyl)-1-piperazinyl]ethyl]-N²-[5(S)-(tert.butoxyformamido)-6-cyclohexyl-4(S)-hydroxy-2(S)-isopropylhexanoyl]-L-isoleucineamide], the IC50 on HIV protease (setting [2]) came out at 2.7 nM; in the experiment with HTLV-III (strain RF), 5 nM.

In the case of `CC[C@H](C)[C@H](NC(=O)[C@H](C(C)C)[C@@H](O)[C@H](O)[C@H](CC1CCCCC1)NC(=O)OC(C)(C)C)C(=O)NCCN1CCN(C(=O)OCc2ccccc2)CC1` [Compound N, N¹-[2-[4-(Benzyloxycarbonyl)-1-piperazinyl]ethyl]-N²-[5(S)-(tert.butoxyformamido)-6-cyclohexyl-3(R),4(R)-dihydroxy-2(R)-isopropylhexanoyl]-L-isoleucinamide], the IC50 on HIV protease (setting [2]) was 4.1 nM; in the experiment on HTLV-III (strain RF), less than 100 nM.

As for `CC[C@H](C)[C@H](NC(=O)[C@@H](C[C@H](O)[C@H](CC1CCCCC1)NC(=O)[C@H](CC#N)NC(=O)OCc1ccccc1)C(C)C)C(=O)NCCc1ccccc1` [Compound K, N²-[5(S)-[[N-(Benzyloxycarbonyl)-β-cyano-L-alanyl]amino]-6-cyclohexyl-4(S)-hydroxy-2(S)-isopropylhexanoyl]-N¹-phenethyl-L-isoleucinamide], the IC50 at HIV protease (setting [2]) came out at 1.6 nM; with HTLV-III (strain RF), 4 nM.

Turning to `CC[C@H](C)[C@H](NC(=O)[C@@H](C[C@H](O)[C@H](Cc1ccccc1)NC(=O)OC(C)(C)C)C(C)C)C(=O)NCCc1ccccc1` [Compound G, N²-[5(S)-(tert.Butoxyformamido)-4(S)-hydroxy-2(S)-isopropyl-6-phenylhexanoyl]-N¹-phenethyl-L-isoleucinamide], the IC50 was found to be 4.1 nM at HIV protease (setting [1]), 0.89 nM on HIV protease (setting [2]), 32 nM on HIV protease (setting [3]) and 100 nM in the experiment on HTLV-III (strain RF).

In the case of `CC[C@H](C)[C@H](NC(=O)[C@@H](C[C@H](O)[C@H](CC1CCCCC1)NC(=O)OC(C)(C)C)C(C)C)C(=O)NCCN1CCOCC1` [Compound F, N²-[5(S)-(tert.Butoxyformamido)-6-cyclohexyl-4(S)-hydroxy-2(S)-isopropylhexanoyl]-N¹-(2-morpholinoethyl)-L-isoleucinamide], the IC50 at HIV protease (setting [1]) was 4 nM; on HIV protease (setting [2]), 1.9 nM; in the experiment on HTLV-III (strain RF), 100 nM.

Turning to `CC[C@H](C)[C@H](NC(=O)[C@@H](C[C@H](O)[C@H](CC1CCCCC1)NC(=O)OC(C)(C)C)C(C)C)C(=O)NC1Cc2ccccc2C1` [Compound E, N²-[5(S)-(tert.Butoxyformamido)-6-cyclohexyl-4(S)-hydroxy-2(S)-isopropylhexanoyl]-N¹-(2-indanyl)-L-isoleucinamide], the IC50 is 4.3 nM at HIV protease (setting [1]), 2.2 nM at HIV protease (setting [2]) and 70 nM in the experiment on HTLV-III (strain RF).

With `CC[C@H](C)[C@H](NC(=O)[C@@H](C[C@H](O)[C@H](CC1CCCCC1)NC(=O)CC(C)(C)C)C(C)C)C(=O)NCCc1ccccc1` [Compound J, N²-[5(S)-(tert.Butylacetamido)-6-cyclohexyl-4(S)-hydroxy-2(S)-isopropylhexanoyl]-N¹-phenethyl-L-isoleucinamide], the results for the IC50 at HIV protease (setting [1]) and in the experiment with HTLV-III (strain RF) were 7.7 nM and 100 nM, respectively.

Source of the values: patent EP0386611A2, “Amino acid derivatives” (F. HOFFMANN-LA ROCHE AG, priority 1989, dated 1990).
